Data as given in patent publication US20120128740A1, “NANOSTRUCTURED […] BASE, ITS PHARMACEUTICALLY ACCEPTABLE SALTS AND CO-CRYSTALS, COMPOSITIONS OF THEM, PROCESS FOR THE PREPARATION THEREOF AND PHARMACEUTICAL COMPOSITIONS CONTAINING THEM” (priority 2009, published 2012).

What was measured:
[1] = Visual observation of wettability by stereomicroscope; assay type: physicochemical; conditions: one drop of distillate water on 0.1 mg powder
Protocol: Wettability of nanostructured Sildenafil Citrate particles was investigated in distilled water and was visualized by stereomicroscope equipped with CCD camera. 0.1 mg reference and nanostructure Sildenafil powder was placed to the slide and then one drop of distillate water was added to the powder.

[2] = Particle size concluded from X-ray diffractograms; assay type: physicochemical; conditions: XRD
Description: The wide reflection between 15 and 20 20 values indicates the amorphous structure of the Carbopol 971. The characteristic reflections of the crystalline Sildenafil citrate can be found on the XRD diffractogram of nanosized Sildenafil citrate, but with lower intensity.

[3] = cited from earlier work

Which wettability [1] does the source give for `CCCc1nn(C)c2c(=O)[nH]c(-c3cc(S(=O)(=O)N4CCN(C)CC4)ccc3OCC)nc12.O=C(O)CC(O)(CC(=O)O)C(=O)O` [Sildenafil citrate, 1-[[3-(6,7-dihydro-1-methyl-7-oxo-3-propyl-1H-pyrazolo[4,3-d]pyrimidin-5-yl)-4-ethoxyphenyl]sulfonyl]-4-methylpiperazine citrate] here?
Its wettability is “stayed in their aggregated state”.

And the “particle size from diffractograms” value [2]?
The value was 1-2 μm.

And the absolute bioavailability ([3]; oral)?
Its absolute bioavailability is 41%.

And the “dose dependence of AUC and cmax” value ([3]; single doses from 1.25 to 200 mg)?
The value was “dose-proportional”.
